# According to patent US10208007B2, “Use of strigolactones and strigolactone analogs for treating proliferative conditions” (The State of Israel, Ministry of Agriculture & Rural …, priority 2011, dated 2019):
# Where “and” joins values, the source holds several entries; their conditions need not be identical. Identical values can stand only once.
# Legend:
# MDA-MB-231 cells = assay: Hoechst 33342 staining; format: cell-based, human; conditions: 48 hours
# Experimental: MDA-MB-231 cells were seeded out into 96 well plates in triplicate at 3000 cell per well. […] After 48 hours, the medium was aspirated off and 100 μl of Hoechst dye (2 μg/ml), diluted with the medium, was added to the cells and incubated for 15 minutes. Stained cells were observed under a fluorescence microscope (Zeiss 5 Instruments, Thornwood, N.Y.).
# MDA-MB-231 mammospheres = assay: Mammosphere formation; format: cell-based, human
# Experimental: Adherent cells were gently trypsinized, (0.05% trypsin/EDTA) washed twice in PBS and filtered through a […] cell sieve to obtain a single cell suspensions. Cells were diluted to a concentration of 10,000 cell/ml in serum-free phenol-red free MEBM (MEGM Bulletkit, Lonza) supplemented with 5 μg/ml bovine insulin, 20 ng/ml recombinant epidermal growth factor, 20 ng/ml basic fibroblast growth factor (Gibco), 1×B27 supplement, 0.5 μg/ml hydrocortisone (MEGM Bulletkit, Lonza). For MDA-MB-231 mammosphere cultures serum-free phenol red-free CnT-27 medium with growth additives (CellnTEC Advanced cell systems, Bern, Switzerland) was used as previously described. 0.1 ml was seeded per well of a Ultralow attachment 96 well plates. The following day the indicated doses of GR-24 (ppm) or vehicle alone (0.6% acetone f/c) were added. Media was replenished every 3-4 days. Self-renewal capacity of the mammospheres was determined by re-plating and producing further generations of mammospheres. Secondary mammospheres were cultivated by dissociation (trypsinization with gently vortexing) of 10-14 day old primary mammospheres. Single cell suspensions were obtained as described above.
# GRIM REAPER (GRI) = assay: Gene transcription level by quantitative PCR: GRI; format: in vivo, Arabidopsis thaliana
# Experimental: Seeds of homozygous lines of Arabidopsis thaliana wild type (WT; Columbia; Col-0) and max2-1 mutant (http://abrc.osu.edu/) were surface-sterilized and germinated on 1/2 Murashige and Skoog (MS) plates supplemented with 1% sucrose and solidified with 0.7% agar. Plates were incubated vertically in the dark at 4° C. for two days to synchronize germination. Three days after germination, seedlings were gently transferred using forceps to 1/2 MS plates containing various concentrations of GR-24 as a mixture of four diastereomers: (±)-GR-24 and (±)-2'-epi-GR-24. The root tip of the transferred seedling was marked on the plates. The plates remained unsealed to prevent accumulation of gases (e.g., ethylene), and were positioned in an upright 45° position, and incubated at 22° C. with a light intensity of […] m-2 s-1 provided by white fluorescent tubes and under a photoperiod of 16 hours exposure to light/8 hours in the dark for 6-12 days. GR-24 treatments were conducted at concentrations ranging from 2.7×10^-6 to 13.5×10^-6 M. […] GR-24, ST-357 and ST-362 were initially dissolved in acetone to give a 4.5 mM, 10 μM and 10 μM solutions, respectively, which were then further diluted with double-distilled sterile water (DDW). […] In each of the experiments, non-treated roots were compared to the respective acetone control. Where no difference was observed between the various controls, non-treated roots are shown. Where differences were recorded between non-treated and acetone controls, the comparison was made between GR-24, ST-357 and ST-362-treated and acetone-treated roots. RNA was extracted from seedlings grown and treated as described in Example 1. Quantitative PCR was performed by amplifying fragments of genes of interest (Tables 6 & 7). Arabidopsis 15S ribosomal RNA (GenBank accession no. AT1G04270.1) served as the reference gene for the amount of RNA, and was amplified using specific primers (forward) [NT] and (reverse) [NT]. The experiment was performed in 5-6 biological replicates; each replicate included 8 plants, on which 3 technical repeats were performed. Means and standard error were determined from all biological replicates. Primers were designed using PrimerQuest software (Integrated DNA Technologies). RNA was extracted using Trizol (Invitrogen, Carlsbad, Calif., USA) using the manufacturer's protocol. 1 μg RNA was reverse-transcribed in a total volume of 20 μl using the Superscript First strand cDNA synthesis kit (Invitrogen). […] The expression of each target gene was normalized to the expression of GAPDH RNA and is presented as the ratio of the target gene to GAPDH RNA, expressed as 2-ΔCt, where Ct is the threshold cycle and ΔCt=[NT] […]
# pERK1/2 = assay: Immunoblot with densitometric quantification; format: cell-based, human; conditions: DU145, after 1 hour
# Experimental: (§1) Protein concentration was determined using the BCA Protein Assay (Pierce), and 20-50 μg of lysate were separated in a 4-12% SDS-PAGE gel. After transfer, membranes were blocked for 15-30 min at room temperature in 5% BSA (Sigma) in Tris-buffered saline containing 0.1% Tween-20. Primary antibody was incubated for either 1.5 hours at room temperature or overnight at 4° C. Secondary antibody was incubated for 30-45 min at room temperature, and proteins were visualized with West Pico Stable (Pierce). All antibodies were used at 1:1000 dilution unless otherwise stated. pT308AKT, AKT, pT180/Y182, pT183/Y185 P38MAPK, pP38MAPK, pT202/Y204 pERK1/2, ERK1, pT183/Y185, pJNK1/2, JNK1, pT71ATF2, pT581MSK1, pT14 Cdc2, Cdc2, pT68Chk2 (cell signaling), pT334MAPKAPK, pS82HSP27 (Cell Signaling Technology, Danvers, Mass.), α-tubulin (Biomarkers, 1:50,000), Cyclin B1 (Santa Cruz Biotechnologies) and horseradish peroxidase-conjugated anti-rabbit IgG and anti-mouse IgG (1:5,000, Pierce).
# (§2) Densitometric quantifications were carried out using ImageJ software (NIMH).
# (§3) To investigate the signaling mechanisms elicited by strigolactone analogs in cancer cells, MDA-MB-231, DU145 and HCT116 cells were treated with strigolactone analogs for 1, 4 or 8 hours and lysates were analyzed by immuno-blotting. The family of MAPK enzymes plays a pivotal role in cell growth, survival and cellular stress responses. The best characterized MAPKs fall into three families: (i) the mitogen activated extracellular signal regulated kinases (ERK1/2) which are activated in response to positive proliferation signals, (ii) c-Jun amino (N)-terminal kinases (JNK1/2/3) and (iii) p38 isoforms (p38α, β, γ, δ), all are activated by environmental stress stimuli such as DNA damage, UV irradiation and inflammatory cytokines.
# JNK1/2 phosphorylation = assay: Immunoblot with densitometric quantification; format: cell-based, human
# Experimental: as §1, §2, §3
compound,measurement,setting,value
"CC1=CC(O/C=C2/C(=O)c3c(c4cc(-c5scc6c5OCCO6)ccc4n3C)C2C)OC1=O (centres unmarked) [ST-362, (2E)-2-[(2,5-dihydro-4-methyl-5-oxofuran-2-yloxy)methylene]-1,2-dihydro-7-(2,3-dihydrothieno[3,4-b][1,4]dioxin-7-yl)-1,4-dimethyl-cyclopenta[b]indole-3-(4H)-one]",Concentrations resulting in increased nuclear condensation and fragmentation (indicative of apoptosis),MDA-MB-231 cells,10-15 ppm and 5-10 ppm
"CC1=C[C@H](O/C=C2/C(=O)O[C@@H]3c4ccccc4C[C@H]23)OC1=O (relative stereo) [GR-24, (3aR*,8bS*,E)-3-(((R*)-4-methyl-5-oxo-2,5-dihydrofuran-2-yloxy)methylene)-3,3a,4,8b-tetrahydro-2H-indeno[1,2-b]furan-2-one]",Mammosphere growth,MDA-MB-231 mammospheres; 2.5 ppm,severely attenuated
same,Mammosphere formation,MDA-MB-231 mammospheres; 5 ppm,completely blocked
same,"Concentration to block mammosphere formation, fold lower than IC50 dose for monolayer growth",MDA-MB-231 mammospheres; MDA-MB-231,2.7 fold
same,GRI gene expression induction,GRIM REAPER (GRI); 3 μM,2.3 fold
same,GRI transcription level versus controls,"GRIM REAPER (GRI); WT seedlings, 3 μM",33.008 ± 7.121
same,GRI gene transcription,GRIM REAPER (GRI); max2-1 mutants,not induced
same,GRI transcription level versus controls,"GRIM REAPER (GRI); max2-1 seedlings, 3 μM",0.214 ± 0.193
"CC1=CC(O/C=C2\Cc3c(n(C)c4cc(-c5cccs5)ccc34)C2=O)OC1=O (racemic) [MEB-55, (±) 2E-4-methyl-2-(4-methyl-5-oxo-2,5-dihydrofuran-2-yloxymethylene)-6-thiophen-2-yl-1,4-dihydro-2H-cyclopenta[b]indol-3-one]",pERK1/2 levels reduction,pERK1/2,4 fold
same,JNK1/2 phosphorylation increase,"JNK1/2 phosphorylation; DU145, 4 hours",15 fold
same,Decrease of JNK1/2 phosphorylation from the 4 hours level,"JNK1/2 phosphorylation; DU145, 8 hours",50%
